The text below walks through data of patent US11504410B2, “Neuroprotection and neuroregeneration by pterostilbene and compositions thereof” (THERAPEUTIC SOLUTIONS INTERNATIONAL, INC., priority 2020, dated 2022).

Data set [1] deals with classical complement activation pathway. The settings on record: cited from earlier work.
For data set [2] the test system is unchanged. The settings on record: 15 U intravenously, cited from earlier work.
The nature of data set [3]: Relative bioavailability of pterostilbene. It counts as in vivo. The settings on record: compared with creatine monohydrate. An excerpt:
Without being bound by any particular theory, due to its improved solubility, pterostilbene is also expected to have better oral absorption properties compared to various other neuroprotectants. As used herein, “bioavailability” refers to the rate and amount of a drug or supplement that reaches the systemic circulation of a patient following administration of the drug or supplement. […] The terms “treatment,” “treating,” and “treat, are used herein to refer generally to obtaining a desired pharmacological and/or physiological effect. The effect may be prophylactic in terms of completely or partially preventing a disease or symptom thereof and/or may be therapeutic in terms of a partial or complete stabilization or cure for a disease and/or adverse effect attributable to the disease. “Treatment” as used herein covers any treatment of a disease in a subject, and includes: (a) preventing the disease or symptom from occurring in a subject which may be predisposed to the disease or symptom, but has not yet been diagnosed as having it; (b) inhibiting the disease symptom, i.e., arresting its development; or (c) relieving the disease symptom, i.e., causing regression of the disease or symptom.

With “C1-INH: C1-esterase inhibitor, inhibits the classical complement activation pathway”, in data set [1] (rat, in vivo), the “mean arterial blood pressure (MABP) and arterial blood gases” value is recorded as “unaffected by the treatment”. In data set [1] (rats, after occlusion, versus vehicle), the “regional cerebral blood flow (rCBF)” value was “No difference was noted between experimental groups”. Besides, the “reduction of infarct volume” value in data set [1] (rats, infusion over 30 min after occlusion, evaluated after 5 days survival) is 72%. Also, in data set [2] (48 hours after ischemia), the “improvement of focal neurologic deficits” value is 54%, the “improvement of general neurologic deficits” value was 36% and the “infarct volume of total brain” value is 6.69%+/−2.93%. For the same compound, the “neutral red staining in cortex, hippocampus, and striatum” value in data set [2] is recorded as “strong protective effect”.

For `COc1cc(/C=C/c2ccc(O)cc2)cc(OC)c1` [pterostilbene], in data set [3], the “relative bioavailability greater than creatine monohydrate” value is “at least 50%”.
